Experimental data: patent US20090012103A1, “SUBSTITUTED HETEROCYCLIC COMPOUNDS” (priority 2007, published 2009)

What follows are compounds tested against wild-type human cardiac sodium channel, hNav1.5 (Homo sapiens, UniProt Q14524) (assay: Late INa screening assay (late sodium current, PatchXpress whole cell patch clamp)). Settings: compound at 10 μM; read-out: Late INa % blk.
Format: cell-based
Description: The late sodium current (Late INa) and peak sodium current (Peak INa) assays are performed on an automated electrophysiology platform, PatchXpress 7000A (MDS Analytical Technologies, Sunnyvale, Calif.), which uses the whole cell patch clamp technique to measure currents through the cell membrane of up to 16 cells at a time. The assay uses an HEK293 (human embryonic kidney) cell line heterologously expressing the wild-type human cardiac sodium channel, hNav1.5, purchased from Millipore (Billerica, Mass.). No beta subunits were coexpressed with the Na channel alpha subunit. […] Experiments are carried out at 24-27° C.
For both the Late INa and Peak INa assays, series resistance compensation is set to 50% and whole-cell compensation is performed automatically. […] Currents through open sodium channels are automatically recorded and stored in the DataXpress2 database (MDS Analytical Technologies, Sunnyvale, Calif.). Analysis is performed using DataXpress2 analysis software and data are compiled in Excel.
Compound stocks are routinely made in glass vials to 10 mM in dimethyl sulfoxide (DMSO). In some cases, when compounds are not soluble in DMSO, they are made in 100% ethanol. Stocks are sonicated as necessary. The extracellular solution for screening Late INa is composed of: 140 mM NaCl, 4 mM KCl, 1.8 mM CaCl2, 0.75 mM MgCl2, and 5 mM HEPES with pH adjusted to 7.4 using NaOH. The extracellular solution for screening Peak INa is composed of: 20 mM NaCl, 120 mM N-methyl-D glucamine, 4 mM KCl, 1.8 mM CaCl2, 0.75 mM MgCl2, and 5 mM HEPES with pH adjusted to 7.4 using HCl. The intracellular solution used to perfuse the inside of the cells for both the Late INa and Peak INa assays contains: 120 mM CsF, 20 mM CsCl, 5 mM EGTA, 5 mM HEPES and pH adjusted to 7.4 with CsOH. Compounds are diluted in extracellular solution to 10 μM in glass vials and then transferred to glass well plates before robotic addition to the cells. The 0 Na extracellular solution used at the end of each experiment for the Late INa and Peak INa assays to measure baseline current contains: 140 mM N-methyl-D-glucamine; 4 mM KCl; 1.8 mM CaCl2; 0.75 mM MgCl2; 5 mM HEPES and pH was adjusted to 7.4 with HCl.
For the Late INa assay, sodium channels are activated every 10 seconds (0.1 Hz) by depolarizing the cell membrane to −20 mV for 250 milliseconds (ms) from a holding potential of −120 mV.
All compounds are tested to determine their activity in blocking the late sodium current. Late INa current is generated by adding 10 μM Tefluthrin (pyrethroid) to the extracellular solution while recording Na currents. […] For some experiments, 50 nM ATX II (sea anemone toxin), another late INa activator, was used to generate the late component. […] Baseline current in the absence of Na^+ ions is measured at the end of each experiment (after two additions of 0 Na solution-see above) and is used to calculate the percent block by compound.

Chain of wild-type human cardiac sodium channel, hNav1.5 (Q14524 whole entry): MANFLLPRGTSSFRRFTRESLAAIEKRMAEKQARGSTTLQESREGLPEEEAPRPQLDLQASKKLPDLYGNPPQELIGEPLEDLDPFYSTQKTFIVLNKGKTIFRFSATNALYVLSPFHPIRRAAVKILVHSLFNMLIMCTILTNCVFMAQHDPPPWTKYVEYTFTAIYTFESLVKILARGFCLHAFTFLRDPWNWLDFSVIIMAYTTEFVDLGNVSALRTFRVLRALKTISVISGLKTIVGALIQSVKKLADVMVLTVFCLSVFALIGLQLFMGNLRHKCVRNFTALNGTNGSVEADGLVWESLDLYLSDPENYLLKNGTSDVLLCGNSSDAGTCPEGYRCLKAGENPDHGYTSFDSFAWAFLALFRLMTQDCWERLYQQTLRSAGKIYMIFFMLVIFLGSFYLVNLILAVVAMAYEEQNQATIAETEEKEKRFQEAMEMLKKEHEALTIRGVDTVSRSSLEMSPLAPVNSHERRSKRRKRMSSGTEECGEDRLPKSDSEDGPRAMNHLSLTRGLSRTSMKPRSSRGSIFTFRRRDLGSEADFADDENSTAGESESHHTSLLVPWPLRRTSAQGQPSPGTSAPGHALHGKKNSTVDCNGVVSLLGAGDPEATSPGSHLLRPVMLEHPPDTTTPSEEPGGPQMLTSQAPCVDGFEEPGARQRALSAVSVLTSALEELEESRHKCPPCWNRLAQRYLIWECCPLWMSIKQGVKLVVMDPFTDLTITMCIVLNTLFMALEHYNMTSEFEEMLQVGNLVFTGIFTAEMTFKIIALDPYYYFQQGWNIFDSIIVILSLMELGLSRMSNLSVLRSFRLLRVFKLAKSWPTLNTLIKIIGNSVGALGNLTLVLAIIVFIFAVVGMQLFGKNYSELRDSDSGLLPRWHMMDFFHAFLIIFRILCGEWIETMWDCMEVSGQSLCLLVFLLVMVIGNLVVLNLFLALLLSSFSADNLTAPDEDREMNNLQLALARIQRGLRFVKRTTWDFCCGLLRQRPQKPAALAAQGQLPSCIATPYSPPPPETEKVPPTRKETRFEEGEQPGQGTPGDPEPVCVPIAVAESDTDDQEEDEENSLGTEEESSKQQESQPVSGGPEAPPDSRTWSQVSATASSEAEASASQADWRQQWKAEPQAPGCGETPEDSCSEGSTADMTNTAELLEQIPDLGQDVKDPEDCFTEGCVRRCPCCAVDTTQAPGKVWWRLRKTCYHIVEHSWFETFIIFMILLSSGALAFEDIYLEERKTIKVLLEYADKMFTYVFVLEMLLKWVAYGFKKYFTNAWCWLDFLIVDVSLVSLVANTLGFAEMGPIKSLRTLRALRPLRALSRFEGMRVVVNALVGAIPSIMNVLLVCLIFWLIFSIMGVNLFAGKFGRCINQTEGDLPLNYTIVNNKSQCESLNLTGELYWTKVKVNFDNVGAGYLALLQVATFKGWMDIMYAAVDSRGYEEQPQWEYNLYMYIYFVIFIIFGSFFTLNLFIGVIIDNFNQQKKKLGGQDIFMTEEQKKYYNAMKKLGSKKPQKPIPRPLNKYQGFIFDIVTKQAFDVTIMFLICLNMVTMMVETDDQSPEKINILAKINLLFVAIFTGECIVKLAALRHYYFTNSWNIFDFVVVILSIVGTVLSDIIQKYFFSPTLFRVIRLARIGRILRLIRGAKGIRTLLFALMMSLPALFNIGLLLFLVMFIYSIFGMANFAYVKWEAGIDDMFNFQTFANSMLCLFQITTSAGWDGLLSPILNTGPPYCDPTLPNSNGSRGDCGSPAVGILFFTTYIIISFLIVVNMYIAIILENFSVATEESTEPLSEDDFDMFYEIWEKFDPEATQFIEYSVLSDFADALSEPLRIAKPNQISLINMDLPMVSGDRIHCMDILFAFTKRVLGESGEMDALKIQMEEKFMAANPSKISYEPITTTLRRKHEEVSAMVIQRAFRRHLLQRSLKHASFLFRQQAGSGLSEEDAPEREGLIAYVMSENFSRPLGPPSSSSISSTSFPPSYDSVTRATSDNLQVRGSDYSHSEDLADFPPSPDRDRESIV

| Compound | inhibition at 10 µM |
| --- | --- |
| CC1=C(C(=O)OC(C)(C)c2ccccc2)C(c2cccc3ccccc23)n2nnnc2N1 (stereo not drawn) [PT-065, 2-phenylpropan-2-yl 5-methyl-7-(naphthalen-1-yl)-4,7-dihydrotetrazolo[1,5-a]pyrimidine-6-carboxylate] | 59% |
| O=C1OCC(O)=C1C(C1=C(O)COC1=O)c1cccc2ccccc12 [PT-222, 3,3′-(naphthalen-1-ylmethylene)bis(4-hydroxyfuran-2(5H)-one)] | 15.8% |
| CC1=C(C(=O)OCC2CC2)C(c2c(-c3ccc(C(=O)O)cc3)sc3ccccc23)n2nnnc2N1 (stereo not drawn) [PT-293, 4-(3-(6-((cyclopropylmethoxy)carbonyl)-5-methyl-4,7-dihydrotetrazolo[1,5-a]pyrimidin-7-yl)benzo[b]thiophen-2-yl)benzoic acid] | 7.7% |
| COC(=O)C1=C(C)Nc2[nH]nc(C)c2C1c1nc(C)cs1 (stereo not drawn) [PT-509, methyl 3,6-dimethyl-4-(4-methylthiazol-2-yl)-4,7-dihydro-1H-pyrazolo[3,4-b]pyridine-5-carboxylate] | 6.4% |
| CC1=C(C(=O)OCc2ccc(Cn3cccn3)cc2)C(c2ccccc2OCc2ccccc2)n2nnnc2N1 (stereo not drawn) [PT-282, 4-((1H-pyrazol-1-yl)methyl)benzyl 7-(2-(benzyloxy)phenyl)-5-methyl-4,7-dihydrotetrazolo[1,5-a]pyrimidine-6-carboxylate] | 30.2% |
| CC1=C(C(=O)OC(C)C)C(c2cccc3ccccc23)C2=C(CCCC2=O)N1 (stereo not drawn) [PT-158, isopropyl 2-methyl-4-(naphthalen-1-yl)-5-oxo-1,4,5,6,7,8-hexahydroquinoline-3-carboxylate] | 38.7% |
| CCOC(=O)c1ccc(COc2ccccc2C2C(C(=O)OCc3ccccc3)=C(C)Nc3nnnn32)cc1 (stereo not drawn) [PT-377, benzyl 7-(2-(4-(ethoxycarbonyl)benzyloxy)phenyl)-5-methyl-4,7-dihydrotetrazolo[1,5-a]pyrimidine-6-carboxylate] | 30.3% |
| CC1=C(C(=O)OC(c2ccc(F)cc2)c2ccc(F)cc2)C(c2cccc3ccccc23)n2nnnc2N1 (stereo not drawn) [PT-007, bis(4-fluorophenyl)methyl 5-methyl-7-(naphthalen-1-yl)-4,7-dihydrotetrazolo[1,5-a]pyrimidine-6-carboxylate] | 44% |
| CC1=C(C(=O)O[C@@H](C)c2ccccc2)C(c2ccc(N(C)C)c3ccccc23)n2nnnc2N1 (stereo partly drawn) [PT-054, (S)-1-phenylethyl 7-(4-(dimethylamino)naphthalen-1-yl)-5-methyl-4,7-dihydrotetrazolo[1,5-a]pyrimidine-6-carboxylate] | 72.4% |
| CC1=C(C(=O)OCc2ccccc2)C(c2ccc(C(F)(F)F)cc2[N+](=O)[O-])n2nnnc2N1 (stereo not drawn) [PT-347, benzyl 5-methyl-7-(2-nitro-4-(trifluoromethyl)phenyl)-4,7-dihydrotetrazolo[1,5-a]pyrimidine-6-carboxylate] | 5.1% |
| CC1=C(C(=O)OCc2ccccc2)C(c2ccnc3ccccc23)n2nnnc2N1 (stereo not drawn) [PT-197, benzyl 5-methyl-7-(quinolin-4-yl)-4,7-dihydrotetrazolo[1,5-a]pyrimidine-6-carboxylate] | 21.5% |
| CC1=C(C(=O)OCc2ccccc2)C(c2ccccc2-c2cccc(N)c2)n2nnnc2N1 (stereo not drawn) [PT-399, benzyl 7-(3′-aminobiphenyl-2-yl)-5-methyl-4,7-dihydrotetrazolo[1,5-a]pyrimidine-6-carboxylate] | 66.2% |
| CCOC(=O)C1=C(C)NC2=C(C(=O)CCC2)C1c1ccc(N(C)C)c2ccccc12 (stereo not drawn) [PT-139, ethyl 4-(4-(dimethylamino)naphthalen-1-yl)-2-methyl-5-oxo-1,4,5,6,7,8-hexahydroquinoline-3-carboxylate] | 21.8% |
| CC1=C(C(=O)OCc2ccccc2)[C@@H](c2ccccc2-c2ccc(C#N)cc2)n2nnnc2N1 [PT-243, (R)-benzyl 7-(4′-cyanobiphenyl-2-yl)-5-methyl-4,7-dihydrotetrazolo[1,5-a]pyrimidine-6-carboxylate] | 91.5% |
| CCOC(=O)C1=C(C)Nc2nnnn2C1c1ccccc1Oc1cccc(C(=O)O)c1 (stereo not drawn) [PT-272, 3-(2-(6-(ethoxycarbonyl)-5-methyl-4,7-dihydrotetrazolo[1,5-a]pyrimidin-7-yl)phenoxy)benzoic acid] | -4.9% |
| CC1=C(C(=O)OC(C)(C)C)C(c2cccc3ccccc23)n2nnnc2N1 (stereo not drawn) [PT-023, tert-butyl 5-methyl-7-(naphthalen-1-yl)-4,7-dihydrotetrazolo[1,5-a]pyrimidine-6-carboxylate] | 32.8% |
| COC(=O)C1=C(C)Nc2nnnn2C1c1c(Br)sc2ccc(Cl)cc12 (stereo not drawn) [PT-517, methyl 7-(2-bromo-5-chlorobenzo[b]thiophen-3-yl)-5-methyl-4,7-dihydrotetrazolo[1,5-a]pyrimidine-6-carboxylate] | 43.3% |
| CCOC(=O)C1=C(C)NC(C)=C(C(=O)OCC)C1c1ccc(N(C)C)cc1OC [PT-436, diethyl 4-(4-(dimethylamino)-2-methoxyphenyl)-2,6-dimethyl-1,4-dihydropyridine-3,5-dicarboxylate] | 18.7% |
| CCOC(=O)C1=C(C)NC(C)=C(C(=O)OCC)C1c1ccc(N(C)C)cc1[N+](=O)[O-] [PT-437, diethyl 4-(4-(dimethylamino)-2-nitrophenyl)-2,6-dimethyl-1,4-dihydropyridine-3,5-dicarboxylate] | 43.1% |
| CC1=C(C(=O)OCc2ccccc2)C(c2ccccc2N2CCOCC2)n2nnnc2N1 (stereo not drawn) [PT-345, benzyl 5-methyl-7-(2-morpholinophenyl)-4,7-dihydrotetrazolo[1,5-a]pyrimidine-6-carboxylate] | 36.7% |
| CCOC(=O)c1c(C)nc(C)c(C(=O)OCC)c1-c1sc2ccccc2c1C [PT-117, diethyl 2,6-dimethyl-4-(3-methylbenzo[b]thiophen-2-yl)pyridine-3,5-dicarboxylate] | 38.9% |
| O=C1CCCC2=C1C(c1cccc3ccccc13)n1nnnc1N2 (stereo not drawn) [PT-072, 9-(naphthalen-1-yl)-5,6,7,9-tetrahydrotetrazolo[5,1-b]quinazolin-8(4H)-one] | -0.9% |
| COc1ccc(C2C(C(=O)OCc3ccccc3)=C(C)Nc3nnnn32)c([N+](=O)[O-])c1 (stereo not drawn) [PT-419, benzyl 7-(4-methoxy-2-nitrophenyl)-5-methyl-4,7-dihydrotetrazolo[1,5-a]pyrimidine-6-carboxylate] | 44.2% |
| CC1=C(C(=O)OCc2ccccc2)C(c2ccc3ccccc3n2)n2nnnc2N1 (stereo not drawn) [PT-196, benzyl 5-methyl-7-(quinolin-2-yl)-4,7-dihydrotetrazolo[1,5-a]pyrimidine-6-carboxylate] | 32.5% |
| Cc1n[nH]c2c1C(c1cccc3ccccc13)C1=C(COC1=O)N2 (stereo not drawn) [PT-081, 3-methyl-4-(naphthalen-1-yl)-7,8-dihydro-1H-furo[3,4-e]pyrazolo[3,4-b]pyridin-5(4H)-one] | 16.6% |
| CC1=C(C(=O)N2CCC(c3ccccc3)CC2)C(c2ccc3ccccc3c2)C2=C(CCCC2=O)N1 (stereo not drawn) [PT-169, 2-methyl-4-(naphthalen-2-yl)-3-(4-phenylpiperidine-1-carbonyl)-4,6,7,8-tetrahydroquinolin-5(1H)-one] | 11.8% |
| CC1=C(C(=O)N2CCC(c3ccccc3)CC2)C(c2cccc3ccccc23)C2=C(CCCC2=O)N1 (stereo not drawn) [PT-170, 2-methyl-4-(naphthalen-1-yl)-3-(4-phenylpiperidine-1-carbonyl)-4,6,7,8-tetrahydroquinolin-5(1H)-one] | 9.8% |
| CC1=C(c2nnc(Cc3ccccc3)o2)C(c2cccc3ccccc23)n2nnnc2N1 (stereo not drawn) [PT-261, 2-benzyl-5-(5-methyl-7-(naphthalen-1-yl)-4,7-dihydrotetrazolo[1,5-a]pyrimidin-6-yl)-1,3,4-oxadiazole] | 59.4% |
| CCOC(=O)C1=C(C)Nc2nnnn2C1c1sccc1-c1ccc(C(=O)O)cc1 (stereo not drawn) [PT-292, 4-(2-(6-(ethoxycarbonyl)-5-methyl-4,7-dihydrotetrazolo[1,5-a]pyrimidin-7-yl)thiophen-3-yl)benzoic acid] | 18.7% |
| CC1=C(C(=O)OCc2ccccc2)C(c2cnc(N3CCN(C)CC3)s2)n2nnnc2N1 (stereo not drawn) [PT-341, benzyl 5-methyl-7-(2-(4-methylpiperazin-1-yl)thiazol-5-yl)-4,7-dihydrotetrazolo[1,5-a]pyrimidine-6-carboxylate] | 23.3% |
